A word on the EC50: it is the concentration that produces a half-maximal response. Broadly, the MIC is the smallest concentration in the dilution series that meets the test's criterion for growth inhibition. A lower MIC goes with greater potency. One may read the IC50 as the concentration needed to halve the response being measured.

Two compounds from publication PMC7595621, “Quorum sensing N-Acyl homoserine lactones are a new class of anti-schistosomal” (PLoS Neglected Tropical Diseases, 2020) can be followed below.

≈ marks a conversion by molar mass, not a printed value.

Test [1] deals with juvenile S. mansoni worms. In words: Screening of juvenile S. mansoni blood flukes (3-week worms), motility scoring. Format: cell-based, Schistosoma mansoni. The conditions noted are these: for Selectivity index, juvenile worm: HepG2 CC50 / juvenile worm EC50; for EC50: Schistosoma mansoni, 3-week worms, motility scores, read-out: JUVENILE WORM EC50. Here is the method: (§1) Juvenile S. mansoni parasites were recovered via hepatic portal vein perfusion from TO outbred mice (HsdOla:TO, Tuck-Ordinary, Envigo, UK) that were infected percutaneously three weeks earlier with 4000 cercariae. Preparation and centrifugation of juvenile worms have been described previously. […] After motility quantification, 2 μg/mL of PI was added to each well and the plate returned to 37°C, 5% CO2 for 15 minutes. Each well was subsequently imaged on the Roboworm platform using brightfield and fluorescent microscopy (excitation wavelength = 580 nm; emission wavelength = 604 nm). The number of PI positive vs PI negative juvenile worms were cross-checked with the motility scores obtained by our scoring matrix, and the data reported as percentage of PI positive across all parasites within the well. EC50 values were calculated from the motility scores obtained from the dose response titration (as detailed above) and dose response curves were obtained by non-linear regression, after log transformation of concentrations and data normalization using GraphPad Prism 7.02.
Fig 4 Three week juvenile worms are immobilised by N-Acyl homoserine lactones. Three-week old juvenile S. mansoni worms (n = 13–33 per well) were co-cultured with compounds (1) and (3) at concentrations spanning 15 μM—0.23 μM for 72 hrs at 37°C in a humidified atmosphere containing 5% CO2. Parasite motility was scored between 0–4 (0 = no movement/dead, 4 = full movement/healthy). […] A) Effect of compound (1) on juvenile worm motility. (B) Effect of compound (3) on juvenile worm motility. p values are indicated as follows: * <0.05, ** <0.01, *** <0.001.

Test [2] relates to E. coli ATCC 25922. In words: Broth microdilution MIC and IC50 determination, E. coli. Format: cell-based. The note with it: Escherichia coli; for MIC: ATCC25922, 24 h, 24 hr. The protocol:
S. aureus ATCC 29213 and E. coli ATCC 25922 were cultured in Luria-Bertani (LB) medium at 37°C with aeration at 200 rpm for 24 hr, with all procedures performed in a biosafety level 2 (BSL2) cabinet. Stationary phase cultures were then used for minimum inhibitory concentration (MIC) determination using the broth microdilution method, in fresh LB medium, in a 96-well plate. All compounds were tested in triplicate using an initial bacterial concentration of 5.0 × 10^5 colony forming units (CFU)/mL at a final concentration of 125 mg/L (5% and 2.5% v/v methanol). Compounds with no visible growth at 125 mg/L were further evaluated with progressing dilutions. […] Dilutions were repeated in three independent experiments where the optical density (OD600) was measured in a Hidex plate spectrophotometer and absorbance data used for the calculation of an IC50 value. The IC50 value was obtained from a dose response titration (125–0.09 mg/L). Dose response curves were obtained by non-linear regression, after log transformation of concentrations and data normalization using GraphPad Prism 7.02.
As Compound 1 was structurally similar to N-acyl homoserine lactones, a compound class involved in bacterial quorum sensing, we decided to assess its antimicrobial activity and determine if enantiomer separation or lactone ring substitution would change this activity.

Test [3] deals with juvenile S. mansoni worms. The experiment in a line: Propidium iodide (PI) staining of juvenile S. mansoni worms. The conditions noted are these: 72 hrs. Format: cell-based, Schistosoma mansoni. The protocol:
as §1
Three week juvenile schistosomes, incubated with compounds (1), (3) or controls for 72 hrs, were subsequently cultured with PI at a final concentration of 2 μg/mL for 15 minutes at 37 °C in an environment containing 5% CO2. PI positive parasites (dead) were counted and the percent live vs dead in each well is indicated. A) Quantification of compound (1) mediated juvenile death. B) Quantification of compound (3) mediated juvenile death.

The test system of test [4] is S. mansoni schistosomula. In words: Screening of S. mansoni schistosomula (Roboworm, motility and phenotype). Format: cell-based, Schistosoma mansoni. The conditions noted are these: for Selectivity index, schistosomula motility: HepG2 CC50 / schistosomula motility EC50; for Selectivity index, schistosomula phenotype: HepG2 CC50 / schistosomula phenotype EC50; for EC50: Schistosoma mansoni, average across motility and phenotype, read-out: average EC50 for phenotype and motility, schistosomula; for concentrations at which schistosomula phenotype was affected / concentrations at which schistosomula motility was affected: titration 10 to 0.625 μM; for concentrations at which schistosomula phenotype was affected: hit below -0.15; for concentrations at which schistosomula motility was affected: hit below -0.35. The protocol:
Biomphalaria glabrata (NMRI and the previously described pigmented strains) snails infected with S. mansoni (Puerto Rican strain) were shed for 2 hrs under light at 26 °C. Cercariae were collected, mechanically transformed into schistosomula and subsequently prepared for high throughput screening (HTS) on the Roboworm platform as previously described. Schistosomula were cultured in Basch Media (composed of BME media, 10% M169 media, 0.5x MEM vitamins, 10% Schneider’s insect media, 15.6mM Hepes, 5% heat inactivated FBS, 2x Antibiotic/anti-mycotic (Sigma-Aldrich, UK) solution (final concentrations shown)).
EC50 values were calculated from the titrated concentrations by non-linear regression, after log transformation of concentrations and data normalization using GraphPad Prism 7.02.
Fig 2 Anti-schistosomula activity of the eight analogues compared to parent compound 1. […] Test plates were incubated at 37°C for 72 hrs in an atmosphere containing 5% CO2. At 72hrs, schistosomula were scored using the Roboworm platform for both motility (A) and phenotype (B). Any compound that induced a score of below -0.35 for motility (A) and -0.15 for phenotype (B) were considered a hit. Black squares indicate the most positive effect on motility or phenotype; grey scale from dark grey to lighter shades of grey indicates a progressive reduced compound efficacy; white squares indicate no effect on either phenotype or motility. Z´ values for this screen was 0.41741 for motility and 0.57275 for phenotype. (C) Phenotypes of schistosomula when treated with 10μM of each of the test compounds and controls.
Supplementary file pntd.0008630.s003.tif: S1 Fig Initial schistosomula screens of the 14 compounds and their intermediate analogues. […] Test plates were incubated at 37°C for 72 hrs in an atmosphere containing 5% CO2. At 72hrs, schistosomula were scored using the Roboworm platform for both motility and phenotype as previously described. A) Of the 14 compounds evaluated, two fell within the hit region. Z’ scores for motility and phenotype were 0.40079 and 0.56846 respectively. […] Z´ scores for motility and phenotype were 0.37864 and 0.47882 respectively. *Average EC50 value across motility and phenotype is presented for each compound. (TIF) Click here for additional data file.

On to `O=C(CBr)NC1CCOC1=O` (stereo not drawn) [Compound 1, 2-bromo-N-(2-oxotetrahydrofuran-3-yl)acetamide], for which, in test [1] (72 hr), the “significant effect on juvenile worm motility down to” value came to 7.5 µM and the EC50 was 4.3 µM. Further, the “Selectivity index, juvenile worm” value in test [1] was 10.1. The same compound registered an MIC in test [2] (no visible growth) of 125 µg/mL. Besides, the MIC in test [2] (value in square brackets) stood at 563 µM. Moreover, the “Percent P.I positive parasites” value in test [3] (3.75 μM) was 13.3%. For the same compound, in test [3] (7.5 μM), the “Percent P.I positive parasites” value was 100%. In addition, the “Percent P.I positive parasites” value in test [3] (15 μM) amounted to 100%. For the same compound, in test [4] (10 μM, 72 hrs), the “effect on schistosomula motility and phenotype metrics in initial screen” value was “negatively affected both schistosomula motility and phenotype metrics”. For the same compound, in test [4], the “Selectivity index, schistosomula motility” value came to 11.5 and the “Selectivity index, schistosomula phenotype” value turned out to be 7.9. Besides, in test [4] (72 hrs), the EC50 turned out to be 4.7 µM, the “concentrations at which schistosomula phenotype was affected” value is given as “from 10 to 1.25” and the “concentrations at which schistosomula motility was affected” value is reported as “all concentrations tested”. For the same compound, the “good compound effect on schistosomula observed down to a concentration” value in test [4] (titration of initial hits, S1B Fig) came to 1.25 µM.
With `O=C(CBr)NC1CCSC1=O` (stereo not drawn) [Compound 3, 2-bromo-N-(2-oxotetrahydrothiophen-3-yl)acetamide], in test [1] (72 hr), the “complete immobility of juvenile worms observed down to” value stood at 0.94 µM and the EC50 worked out at 0.5 µM. Moreover, the “Selectivity index, juvenile worm” value in test [1] is reported as 37.4. The MIC in test [2] (no visible growth) was determined as 62.5 µg/mL. In test [2] (value in square brackets), the MIC stood at 262 µM. Further, the IC50 in test [2] (ATCC25922, Table 3, OD600, three independent experiments, 95% confidence interval in parentheses) amounted to 52.7 µg/mL (≈ 221 µM). In test [3], the “100% of the parasites PI positive down to concentration” value came out at 0.94 µM. Also, in test [4], the “Selectivity index, schistosomula motility” value came out at 9.8 and the “Selectivity index, schistosomula phenotype” value is given as 8.1. Moreover, in test [4] (72 hrs), the EC50 was 2.1 µM, the “concentrations at which schistosomula phenotype was affected” value was “all concentrations tested” and the “concentrations at which schistosomula motility was affected” value was “all concentrations tested”.
